Laboratory results reported in PMC10020352 (Frontiers in Pharmacology, 2023).
Where two headings read alike, the source gives them in different places. Where a SMILES comes first, the peptide text is derived from it. [ ]: non-standard residue; d: D form. Phe(4-NO2) = N[C@@H](Cc1ccc([N+](=O)[O-])cc1)C(=O)O; Phe(4-Cl) = N[C@@H](Cc1ccc(Cl)cc1)C(=O)O; NMeR = CN[C@@H](CCCNC(=N)N)C(=O)O; Aoc = NCCCCCCCC(=O)O; Sar = CNCC(=O)O

Tests used:
[1] = target: T1, KOP receptor (Homo sapiens, UniProt P41145); assay: cell-based; type: cell-based
T1 sequence (P41145 whole entry): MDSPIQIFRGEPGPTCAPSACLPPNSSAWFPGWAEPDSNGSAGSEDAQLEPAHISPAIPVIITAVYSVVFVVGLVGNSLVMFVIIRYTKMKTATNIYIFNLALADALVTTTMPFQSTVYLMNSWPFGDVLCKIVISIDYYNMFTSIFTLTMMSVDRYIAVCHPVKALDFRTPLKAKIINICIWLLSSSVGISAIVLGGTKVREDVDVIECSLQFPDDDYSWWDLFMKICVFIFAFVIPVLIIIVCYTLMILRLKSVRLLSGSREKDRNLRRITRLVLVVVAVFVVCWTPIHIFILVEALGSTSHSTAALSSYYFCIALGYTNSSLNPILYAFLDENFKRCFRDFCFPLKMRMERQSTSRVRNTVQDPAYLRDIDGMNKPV

[2] = target: T2, DOP receptor (Homo sapiens, UniProt P41143); assay: cell-based
T2 construct: expressed in transfected cells; host or cells: HEK293
T2 sequence (P41143 whole entry): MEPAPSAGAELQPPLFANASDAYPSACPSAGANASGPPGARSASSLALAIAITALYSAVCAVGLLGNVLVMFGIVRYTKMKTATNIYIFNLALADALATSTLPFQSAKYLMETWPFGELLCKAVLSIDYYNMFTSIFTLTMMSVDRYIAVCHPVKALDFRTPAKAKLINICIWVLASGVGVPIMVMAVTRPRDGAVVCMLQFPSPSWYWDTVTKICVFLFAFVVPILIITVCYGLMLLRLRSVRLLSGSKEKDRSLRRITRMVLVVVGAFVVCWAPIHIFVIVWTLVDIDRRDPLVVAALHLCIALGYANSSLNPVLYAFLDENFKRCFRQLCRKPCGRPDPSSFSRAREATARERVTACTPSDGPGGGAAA

[3] = target: T3, MOP receptor (Homo sapiens, UniProt P35372); assay: cell-based
T3 construct: expressed in transfected cells; host or cells: HEK293
T3 sequence (P35372 whole entry): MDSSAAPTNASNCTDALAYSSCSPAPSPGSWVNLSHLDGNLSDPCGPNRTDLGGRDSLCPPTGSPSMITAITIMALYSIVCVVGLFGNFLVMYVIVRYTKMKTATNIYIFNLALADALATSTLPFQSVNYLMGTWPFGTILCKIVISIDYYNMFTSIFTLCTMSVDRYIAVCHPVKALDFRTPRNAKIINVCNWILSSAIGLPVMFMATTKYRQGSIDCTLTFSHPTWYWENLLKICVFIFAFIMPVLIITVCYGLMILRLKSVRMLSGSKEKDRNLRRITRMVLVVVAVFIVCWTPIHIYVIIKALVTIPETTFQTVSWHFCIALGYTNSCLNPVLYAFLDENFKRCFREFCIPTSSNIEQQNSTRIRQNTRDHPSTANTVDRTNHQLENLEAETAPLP

[4] = target: T4, bovine pancreatic trypsin (Bos taurus, UniProt P00760); assay: Metabolic stability in trypsin; type: in vitro ADME; settings: bovine pancreatic trypsin 2.5 μg/mL, pH 8-8.5, 37°C, peptide 100 μM; read-out: Stability (t1/2) Trypsin
T4 sequence (P00760 24-246): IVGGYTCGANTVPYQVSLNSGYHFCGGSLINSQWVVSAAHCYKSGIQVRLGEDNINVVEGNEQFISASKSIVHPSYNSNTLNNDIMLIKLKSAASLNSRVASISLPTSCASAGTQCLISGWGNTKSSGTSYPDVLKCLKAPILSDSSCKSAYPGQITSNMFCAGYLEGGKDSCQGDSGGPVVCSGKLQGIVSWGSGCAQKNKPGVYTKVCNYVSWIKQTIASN
Experimental: (§1) Whole blood was collected in-house from adult mixed-gender Wistar rats (RRID: RGD_150520162), and plasma was prepared in 0.2% EDTA as per standard practice. Peptides (final 100 μM) were incubated with pooled rat plasma at 37°C. Samples were collected at different time intervals 0, 5, 10, 15, 30, 60, and 120 min. At each time point, collected samples were immediately added to three volumes of cold ACN. This mixture was vortexed for 30 s and then centrifuged at room temperature (13 K rpm, 5 min). The supernatant was taken and directly placed in glass HPLC vials for LCMS analysis. The protocol for the trypsin stability assay was as for the plasma stability assay except for the […] (bovine pancreatic trypsin 2.5 μg/mL in NH4HCO3 buffer, approx. pH 8–8.5, 37°C).
(§2) Relative concentrations of each peptide from stability assays in plasma or trypsin were analysed using an Agilent binary LC system consisting of an Agilent 1290 Infinity LC pump, Agilent 1,290 auto-sampler coupled with Triple Quad Mass-Spectrometer (MS, model 6460, Agilent Technologies). A bidentate C18 HPLC column (Cogent, 100 Å, […]) with a binary solvent gradient composed of Solvent: A 0.1%v/v formic acid in MQ water and Solvent B: 0.1% v/v formic acid in ACN was used for the separation. The MS parameters were optimised for all compounds to obtain the highest signal in positive Total Ion Current (TIC) mode. Data were analysed using a combination of Microsoft Excel and GraphPad Prism software packages. Data was normalised to time point zero (immediately after compound addition) and expressed in percentages from t = 0. Half-lives were calculated in GraphPad Prism software (v8.3).

[5] = Metabolic stability in rat plasma; type: in vitro ADME; settings: pooled rat plasma, 37°C, peptide 100 μM; for half-life: rat, plasma, read-out: Stability (t1/2) Plasma
Experimental: as §1, §2

[6] = target: T1, KOP receptor; assay: biochemical; type: binding
[7] = test system: FCA model of inflammatory nociception; settings: rat
[8] = target: T1, KOP receptor; type: cell-based
[9] = test system: pERK1/2 in HEK293-KOP receptor cells; type: cell-based

For `CC(C)C[C@H](NC(=O)[C@H](Cc1ccc([N+](=O)[O-])cc1)NC(=O)CN(C)C(=O)[C@@H](N)Cc1ccc(O)cc1)C(=O)N[C@@H](CCCNC(=N)N)C(=O)N[C@H](CCCNC(=N)N)C(N)=O` [KA204] (H-Y[Sar][Phe(4-NO2)]LR[dR]-NH2), the EC50 [1] was 7.5 nM, the “selectivity for KOP receptor over MOP receptor and DOP receptor” value [1] was > 1000 fold and the EC50 [2] was > 10000 nM. The EC50 [3] was > 10000 nM, the half-life [4] was 15.4 min and the “Stability (t1/2) Plasma” value [5] was 71 min. The half-life [5] was > 60 min, the IC50 [6] was 30.2 nM and the Ki [6] was 2.8 nM. For the same compound, the IC50 ([6]; IC50) was 30.2 nM and the “paw withdrawal threshold in the contralateral (uninflamed, untreated) paw” value ([7]; in vivo) was “not observed”.
For `CC(C)C[C@H](NC(=O)[C@H](Cc1ccc(Cl)cc1)NC(=O)CN(C)C(=O)[C@@H](N)Cc1ccc(O)cc1)C(=O)N[C@@H](CCCNC(=N)N)C(=O)N[C@H](CCCNC(=N)N)C(=O)NCCCCCCCC(N)=O` [KA305] (H-Y[Sar][Phe(4-Cl)]LR[dR][Aoc]-NH2), the “inhibition of peptide cAMP modulation by naloxone” value [1] was “significantly blocked”, the half-life [4] was 4.9 min and the “Log IC50” value [6] was -7.14. The “binding affinity to KOP receptor (in words)” value [6] was “strong binders”, the IC50 ([6]; read-out: IC50) was 72.6 nM and the “KOP receptor desensitisation (maximal cAMP effect after pre-treatment)” value [8] was “modest but significant desensitisation”. The “bias factor β (cAMP versus pERK)” value [9] was “bias towards cAMP”, the “pERK1/2 expression / activity” value [9] was “influenced pERK induction at higher concentrations” and the “overall efficacy (AUC of in vivo effect)” value [7] was “significantly better efficacy than U50488H”. The “Efficacy Index (Ie)” value ([7]; in vivo) was “statistically significant higher Ie over morphine”, the “antinociceptive activity (paw withdrawal threshold)” value ([7]; in vivo) was “showed antinociceptive activity” and the “effect of naloxone on peptide-induced antinociception” value ([7]; in vivo) was “blocked by pre-administration of naloxone”. The “effect on oedema of the affected paw” value ([7]; in vivo) was “without effecting oedema” and the “paw withdrawal threshold in the contralateral (uninflamed, untreated) paw” value ([7]; in vivo) was “not observed”.
With `CC(C)C[C@H](NC(=O)[C@H](Cc1ccccc1)NC(=O)CNC(=O)CNC(=O)[C@@H](N)Cc1ccc(O)cc1)C(=O)N[C@@H](CCCNC(=N)N)C(=O)N[C@@H](CCCNC(=N)N)C(=O)O` [Dyn 1-7, reference compound] the EC50 ([2]; read-out: Activity (EC50) DOP) was 870 nM, the EC50 ([3]; read-out: Activity (EC50) MOP) was 3740 nM and the half-life [4] was < 1 min. For the same compound, the half-life [5] was 8.1 min, the “KOP receptor desensitisation (maximal cAMP effect after pre-treatment)” value [8] was “no discernible desensitisation” and the “bias factor β (cAMP versus pERK)” value [9] was “bias towards pERK”. For the same compound, the “pERK1/2 expression / activity” value [9] was “time and concentration-dependent pERK expression”.
For `CC(C)C[C@H](NC(=O)[C@H](Cc1ccc([N+](=O)[O-])cc1)NC(=O)CN(C)C(=O)[C@@H](N)Cc1ccc(O)cc1)C(=O)N(C)[C@@H](CCCNC(=N)N)C(=O)N(C)[C@@H](CCCNC(=N)N)C(N)=O` [KA311] (H-Y[Sar][Phe(4-NO2)]L[NMeR][NMeR]-NH2), the EC50 [1] was 31 nM, the “selectivity for KOP receptor over MOP receptor and DOP receptor” value [1] was > 1000 fold and the EC50 [2] was > 10000 nM. The EC50 [3] was > 10000 nM, the half-life [4] was > 1000 min and the Ki [6] was 180 nM. The IC50 ([6]; IC50) was 1950 nM and the “paw withdrawal threshold in the contralateral (uninflamed, untreated) paw” value ([7]; in vivo) was “not observed”.
